According to patent US20250228239A1, “MOLECULES HAVING PESTICIDAL UTILITY, AND INTERMEDIATES, COMPOSITIONS, AND PROCESSES, RELATED THERETO” (priority 2024, published 2025):

How the values were obtained:
Assay type in all cases: in vivo
[1] = test system: Yellow Fever Mosquito (Aedes aegypti, AEDSAE); conditions: Yellow Fever Mosquito; rating class
Procedure, shortened: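 Mortality after 3 days at room temperature is the read-out, scored well by well and converted to a rating. Test molecules came from 4000 ppm stocks in DMSO, further diluted in 90:10 water/acetone, and were exposed to roughly 1-day-old larvae suspended in liver-powder water.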

[2] = test system: Cabbage Looper (Trichoplusia ni, TRIPNI); assay: Bioassays on Cabbage Looper (CL), 128-well diet tray assay; conditions: Trichoplusia ni; Cabbage Looper; rating class; read-out: CL
Procedure, shortened: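 Percent mortality, averaged across eight replicate wells, after second-instar larvae (1–5 per well) fed for five to seven days on diet dosed at 50 μg/cm^2. Compound was applied in acetone-water 90:10 and dried; trays kept vented at 25° C under 14:10 photoperiod.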

[3] = test system: Beet Armyworm (Spodoptera exigua, LAPHEG); assay: Bioassays on Beet Armyworm (BAW), 128-well diet tray assay; conditions: Spodoptera exigua; Beet Armyworm; rating class; read-out: BAW
Procedure, shortened: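 Mortality of second-instar larvae (1–5/well) on artificial diet treated with 50 μg/cm^2 compound, read after 5–7 days at 25° C.; values are means of eight wells.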

| Structure (SMILES) | YFM [1] | pest or weed control at 50 µg/cm2 [2] | pest or weed control at 50 µg/cm2 [3] |
| --- | --- | --- | --- |
| O=C(Nc1ccc(F)c(NC(=O)C(F)F)c1F)c1cc(NC(=O)[C@H]2[C@H](c3ccc(F)c(C(F)(F)F)c3)C2(Cl)Cl)c(F)cc1Cl [F1729, 2-Chloro-5-((1R,3R)-2,2-dichloro-3-(4-fluoro-3-(trifluoromethyl)phenyl)cyclopropane-1-carboxamido)-N-(3-(2,2-difluoroacetamido)-2,4-difluorophenyl)-4-fluorobenzamide] | A (80–100) | 50 to 100% | 50 to 100% |
| O=C(CCF)Nc1c(F)ccc(NC(=O)c2cc(NC(=O)[C@H]3[C@H](c4ccc(F)c(C(F)(F)F)c4)C3(Cl)Cl)ccc2Cl)c1F [F1735, 2-Chloro-5-((1R,3R)-2,2-dichloro-3-(4-fluoro-3-(trifluoromethyl)phenyl)cyclopropane-1-carboxamido)-N-(2,4-difluoro-3-(3-fluoropropanamido)phenyl)benzamide] | A (80–100) | 50 to 100% | 50 to 100% |
| O=C(CC(F)(F)F)Nc1c(F)ccc(NC(=O)c2cc(NC(=O)[C@H]3[C@H](c4cccc(C(F)(F)F)c4)C3(Cl)Cl)ccc2Cl)c1F [F1738, 2-Chloro-5-((1R,3R)-2,2-dichloro-3-(3-(trifluoromethyl)phenyl)cyclopropane-1-carboxamido)-N-(2,4-difluoro-3-(3,3,3-trifluoropropanamido)phenyl)benzamide] | A (80–100) | 50 to 100% | 50 to 100% |
| CC(=O)Nc1cc(NC(=O)c2cc(NC(=O)[C@H]3[C@H](c4ccc(F)c(C(F)(F)F)c4)C3(Cl)Cl)ccc2Cl)c(F)c(F)c1F [F1743, N-(5-Acetamido-2,3,4-trifluorophenyl)-2-chloro-5-((1R,3R)-2,2-dichloro-3-(4-fluoro-3-(trifluoromethyl)phenyl)cyclopropane-1-carboxamido)benzamide] | A (80–100) | 50 to 100% | 50 to 100% |
| O=C(Nc1cc(NC(=O)C(F)F)c(F)c(F)c1F)c1cc(NC(=O)[C@H]2[C@H](c3ccc(F)c(C(F)(F)F)c3)C2(Cl)Cl)ccc1Cl [F1744, 2-Chloro-5-((1R,3R)-2,2-dichloro-3-(4-fluoro-3-(trifluoromethyl)phenyl)cyclopropane-1-carboxamido)-N-(5-(2,2-difluoroacetamido)-2,3,4-trifluorophenyl)benzamide] | A (80–100) | 50 to 100% | 50 to 100% |
| CC(OCC1CC1)C(=O)Nc1c(F)ccc(NC(=O)c2cc(NC(=O)[C@H]3[C@H](c4ccc(F)c(C(F)(F)F)c4)C3(Cl)Cl)ccc2Cl)c1F (stereo partly drawn) [F1745, 2-Chloro-N-(3-(2-(cyclopropylmethoxy)propanamido)-2,4-difluorophenyl)-5-((1R,3R)-2,2-dichloro-3-(4-fluoro-3-(trifluoromethyl)phenyl)cyclopropane-1-carboxamido)benzamide] | A (80–100) | 50 to 100% | 50 to 100% |
| CC(C)COC(C)C(=O)Nc1c(F)ccc(NC(=O)c2cc(NC(=O)[C@H]3[C@H](c4ccc(F)c(C(F)(F)F)c4)C3(Cl)Cl)ccc2Cl)c1F (stereo partly drawn) [F1746, 2-Chloro-5-((1R,3R)-2,2-dichloro-3-(4-fluoro-3-(trifluoromethyl)phenyl)cyclopropane-1-carboxamido)-N-(2,4-difluoro-3-(2-isobutoxypropanamido)phenyl)benzamide] | A (80–100) | 50 to 100% | 50 to 100% |
| CC(OCC(F)(F)F)C(=O)Nc1c(F)ccc(NC(=O)c2cc(NC(=O)[C@H]3[C@H](c4ccc(F)c(C(F)(F)F)c4)C3(Cl)Cl)ccc2Cl)c1F (stereo partly drawn) [F1747, 2-Chloro-5-((1R,3R)-2,2-dichloro-3-(4-fluoro-3-(trifluoromethyl)phenyl)cyclopropane-1-carboxamido)-N-(2,4-difluoro-3-(2-(2,2,2-trifluoroethoxy)propanamido)phenyl)benzamide] | A (80–100) | 50 to 100% | 50 to 100% |
| CN(C(=O)CC#N)c1c(F)ccc(NC(=O)c2cc(NC(=O)[C@H]3[C@H](c4ccc(F)c(C(F)(F)F)c4)C3(Cl)Cl)ccc2Cl)c1F [F1752, 2-Chloro-N-(3-(2-cyano-N-methylacetamido)-2,4-difluorophenyl)-5-((1R,3R)-2,2-dichloro-3-(4-fluoro-3-(trifluoromethyl)phenyl)cyclopropane-1-carboxamido)benzamide] | A (80–100) | 50 to 100% | 50 to 100% |
| CC(C#N)C(=O)Nc1c(F)ccc(NC(=O)c2cc(NC(=O)[C@H]3[C@H](c4ccc(F)c(C(F)(F)F)c4)C3(Cl)Cl)ccc2Cl)c1F (stereo partly drawn) [F1755, 2-Chloro-N-(3-(2-cyanopropanamido)-2,4-difluorophenyl)-5-((1R,3R)-2,2-dichloro-3-(4-fluoro-3-(trifluoromethyl)phenyl)cyclopropane-1-carboxamido)benzamide] | B (More than 0 – Less than 80) | 50 to 100% | 50 to 100% |
| O=C(Nc1ccc(F)c(I)c1F)c1cc(NC(=O)[C@H]2[C@H](c3ccc(F)c(C(F)(F)F)c3)C2(Cl)Cl)ccc1Cl [F1758, 2-Chloro-5-((1R,3R)-2,2-dichloro-3-(4-fluoro-3-(trifluoromethyl)phenyl)cyclopropane-1-carboxamido)-N-(2,4-difluoro-3-iodophenyl)benzamide] | A (80–100) | 50 to 100% | 50 to 100% |
| CCCC(OCC)C(=O)Nc1c(F)ccc(NC(=O)c2cc(NC(=O)[C@H]3[C@H](c4ccc(F)c(C(F)(F)F)c4)C3(Cl)Cl)ccc2Cl)c1F (stereo partly drawn) [F1759, 2-Chloro-5-((1R,3R)-2,2-dichloro-3-(4-fluoro-3-(trifluoromethyl)phenyl)cyclopropane-1-carboxamido)-N-(3-(2-ethoxypentanamido)-2,4-difluorophenyl)benzamide] | A (80–100) | 50 to 100% | 50 to 100% |
| CC(CC(=O)Nc1c(F)ccc(NC(=O)c2cc(NC(=O)[C@H]3[C@H](c4ccc(F)c(C(F)(F)F)c4)C3(Cl)Cl)ccc2Cl)c1F)C(F)(F)F (stereo partly drawn) [F1760, 2-Chloro-5-((1R,3R)-2,2-dichloro-3-(4-fluoro-3-(trifluoromethyl)phenyl)cyclopropane-1-carboxamido)-N-(2,4-difluoro-3-(4,4,4-trifluoro-3-methylbutanamido)phenyl)benzamide] | A (80–100) | 50 to 100% | 50 to 100% |
| CCN(C(=O)OC(C)(C)C)c1c(F)ccc(NC(=O)c2cc(NC(=O)[C@H]3[C@H](c4ccc(F)c(C(F)(F)F)c4)C3(Cl)Cl)ccc2Cl)c1F [F1761, tert-Butyl (3-(2-chloro-5-((1R,3R)-2,2-dichloro-3-(4-fluoro-3-(trifluoromethyl)phenyl)cyclopropane-1-carboxamido)benzamido)-2,6-difluorophenyl)(ethyl)carbamate] | A (80–100) | 50 to 100% | 50 to 100% |
| C#CCC(=O)N(CC)c1c(F)ccc(NC(=O)c2cc(NC(=O)[C@H]3[C@H](c4ccc(F)c(C(F)(F)F)c4)C3(Cl)Cl)ccc2Cl)c1F [F1763] | A (80–100) | 50 to 100% | 50 to 100% |
